US20110028447A1, “INDAZOLE DERIVATIVES” (Pfizer Inc., priority 2008, published 2011)

Molecular target: human CB1 receptor (Homo sapiens, UniProt P21554)
Assay: Human CB1 receptor binding, [3H] CP-55,940 displacement on HEK cell membranes
Parameters: expressed in transfected cells; host or cells: HEK cells, doxycycline-induced; membrane preparation
Details: CB1 Ki
Description: The Human CB1 receptor binding affinity and other biological activities of the compounds of this invention are determined by the following procedures. Membrane preparation: Human Embryonic Kidney (HEK) Cells expressing the human CB1 receptor under transcriptional regulation of a tetracycline inducible promoter were grown in Dulbecco's Modified Essential Medium with sodium pyruvate (Invitrogen, Carlsbad, Calif.) containing 10% tetracycline free fetal bovine serum (Clonetech, Mountain View, Calif.) 100 μg/ml hygromycin (Calbiochem, San Diego, Calif.), 5 μg/ml blasticidin (Invitrogen). CB1 receptor expression was induced by addition of 1 μg/ml doxycycline (Calbiochem) and incubation for an additional 24 hours. Cells were released from flasks using Cell Dissociation Buffer (Invitrogen). Cells were pelleted by centrifugation at 500×G for 5 minutes. Membranes were prepared by resuspending cells in ice cold TEE Buffer (25 mM Tris pH 7.4, 5 mM EDTA, 5 mM EGTA, Complete Protease Inhibitor (Roche, Basel, Switzerland)). Cells were lysed with 12 strokes of a dounce homogenizer. Unlysed cells were pelleted by centrifugation at 500×G for 5 minutes. Membranes were pelleted by centrifugation at 25,000×G for 30 minutes. Membranes were resuspended in TEE, dounced 12 strokes, and pelleted a second time at 25,000×G for 30 minutes. Membrane pellet was resuspended in 50 mM Tris pH 7.4, 100 mM NaCl, 3 mM MgCl2, 0.2 mM EGTA, Complete Protease Inhibitor (Roche). Protein concentration was determined using the Micro-BCA Protein Assay Kit (Pierce, Rockford, Ill.) using BSA as a standard. Membranes were quick frozen and stored at −80 degrees Celsius until use.
Binding experiments: 50 μl of test compound was incubated with 50 μl of [^3H] CP-55,940 (Perkin Elmer, Boston, Mass.) (final concentration=[…]) and 150 μl of membrane homogenate (1 μg/well) in polypropylene 96-well plates (Corning, Acton, Mass.). Final reaction conditions were 50 mM Tris pH 7.4, 100 mM NaCl, 3 mM MgCl2, 0.2 mM EGTA, 0.04% BSA. Nonspecific binding was determined by incubation with 50 μM WIN-55, 212-2 (Tocris, Ellisville, Mo.). After incubation at room temperature for 60 minutes reactions were harvested by vacuum filtration through Unifilter GF/B-96 filters (Perkin Elmer) that had been presoaked in assay buffer containing 0.5% BSA (Sigma, St. Louis, Mo.) using a FilterMate Plate Harvester (Perkin Elmer). Filters were rinsed 4 times with 50 mM Tris pH 7.4, 0.025% Tween-20 and dried at 50 degrees Celsius for at least 30 minutes. 40 μl of Microscint-20 (Perkin Elmer) was added per well, and plates were counted using a Top-Count Microplate Scintillation Counter (Perkin Elmer). Binding data were analyzed and EC50 and K, values calculated using Graph Pad Prism 4.0 Software.

Chain of human CB1 receptor (P21554 whole entry): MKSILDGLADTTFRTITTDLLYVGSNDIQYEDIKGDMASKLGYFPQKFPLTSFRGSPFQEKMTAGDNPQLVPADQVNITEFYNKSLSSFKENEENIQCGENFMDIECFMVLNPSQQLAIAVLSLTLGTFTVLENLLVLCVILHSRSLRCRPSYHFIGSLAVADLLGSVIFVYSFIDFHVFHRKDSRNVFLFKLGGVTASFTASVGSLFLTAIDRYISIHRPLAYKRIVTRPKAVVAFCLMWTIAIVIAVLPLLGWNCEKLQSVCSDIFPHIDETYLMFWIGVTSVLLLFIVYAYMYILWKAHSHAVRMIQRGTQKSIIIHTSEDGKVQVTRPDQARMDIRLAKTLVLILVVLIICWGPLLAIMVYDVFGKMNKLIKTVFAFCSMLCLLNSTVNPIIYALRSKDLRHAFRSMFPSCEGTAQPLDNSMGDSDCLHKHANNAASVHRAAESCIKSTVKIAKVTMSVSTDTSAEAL

Compared with `CC(C)(C)[C@H](NC(=O)c1nn(Cc2ccc(C#N)cc2)c2cc(F)ccc12)C(=O)NC[C@H](O)CO` [Example 298], `CC(C)(C)[C@H](NC(=O)c1nn(Cc2ccc(C#N)cc2)c2ccccc12)C(=O)NC[C@H](O)CO` [Example 384] is 1.6-fold higher in Ki: 182 nM for the first, 286 nM for the second. The first binds more tightly here.

`CC(C)(C)[C@H](NC(=O)c1nn(Cc2ccc(C#N)cc2)c2cc(F)ccc12)C(=O)NCC(N)=O` [Example 301] and `CC(C)(C)[C@H](NC(=O)c1nn(Cc2ccc(C#N)cc2)c2cc(F)ccc12)C(=O)N1CC(C(N)=O)C1` [Example 353] are within 1.5-fold of each other in Ki: 70.3 nM for the first, 72.8 nM for the second.

`CN1CCN=C1CNC(=O)[C@@H](NC(=O)c1nn(Cc2ccc(F)cc2)c2ccccc12)C(C)(C)C` [Example 304] and `CC(C)(C)[C@H](NC(=O)c1nn(Cc2ccc(F)cc2)c2ccccc12)C(=O)NC[C@@H](O)C(N)=O` [Example 314] are within 1.5-fold of each other in Ki: 152 nM for the first, 130 nM for the second.

Going from `CC(C)(C)[C@H](NC(=O)c1nn(Cc2ccc(C#N)cc2)c2ccccc12)C(=O)NCC1CNC(=O)O1` (stereo partly drawn) [Example 316] to `CC(C)(C)[C@H](NC(=O)c1nn(Cc2ccc(C#N)cc2)c2ccccc12)C(=O)NCC1CCC(=O)N1` (stereo partly drawn) [Example 401], the Ki rises from 243 nM to > 400 nM.

First: CC(C)(C)[C@H](NC(=O)c1nn(Cc2ccc(F)cc2)c2ccccc12)C(=O)N1CCC[C@@H]1C(N)=O [Example 319]
Second: CC(C)(C)[C@H](NC(=O)c1nn(Cc2ccc(C#N)cc2)c2ccccc12)C(=O)N1CC(C(N)=O)C1 [Example 351]
The Ki of the first is 1.9-fold higher: 45.8 nM for the first, 24.3 nM for the second.

Going from `CC(C)(C)[C@H](NC(=O)c1nn(Cc2ccc(C#N)cc2)c2c(F)cccc12)C(=O)N[C@H]1C[C@H](O)C1` [Example 355] to `CC(C)(C)[C@H](NC(=O)c1nn(Cc2ccc(C#N)cc2)c2cc(F)ccc12)C(=O)N[C@H]1C[C@H](O)C1` [Example 356], the Ki falls from 52.9 nM to 32.6 nM (1.6-fold). The second binds more tightly here.

Going from `CC(C)(C)[C@H](NC(=O)c1nn(Cc2ccc(C#N)cc2F)c2c(F)c(F)ccc12)C(=O)NCC(N)=O` [Example 359] to `CC(C)(C)[C@H](NC(=O)c1nn(Cc2ccc(C#N)cc2F)c2c(F)cccc12)C(=O)NCC(N)=O` [Example 369], the Ki falls from 47.2 nM to 28.1 nM (1.7-fold).

Compared with `CC(C)(C)[C@H](NC(=O)c1nn(Cc2ccc(C#N)cc2F)c2c(F)c(F)ccc12)C(=O)NC[C@@H](O)CO` [Example 360], `CC(C)(C)[C@H](NC(=O)c1nn(Cc2ccc(C#N)cc2F)c2c(F)c(F)ccc12)C(=O)NC[C@H](O)CO` [Example 361] is 1.8-fold lower in Ki: 73.5 nM for the first, 41.6 nM for the second.

First: CC(C)(C)[C@H](NC(=O)c1nn(Cc2ccc(C#N)cc2F)c2c(F)c(F)ccc12)C(=O)NCCS(C)(=O)=O [Example 362]
Second: CC(C)(C)[C@H](NC(=O)c1nn(Cc2ccc(C#N)cc2F)c2c(F)c(F)ccc12)C(=O)NCCS(N)(=O)=O [Example 363]
The Ki of the first is 2.2-fold higher: 125 nM for the first, 57.8 nM for the second. The second binds more tightly here.

First: CC(C)(C)[C@H](NC(=O)c1nn(Cc2ccc(C#N)cc2F)c2c(F)cccc12)C(=O)NC[C@@H](O)CO [Example 366]
Second: CC(C)(C)[C@H](NC(=O)c1nn(Cc2ccc(C#N)cc2F)c2c(F)cccc12)C(=O)NC[C@H](O)CO [Example 367]
The Ki of the first is 5.8-fold higher: 241 nM for the first, 41.4 nM for the second. The second binds more tightly here.

Compared with `CC(C)(C)[C@H](NC(=O)c1nn(Cc2ccc(C#N)cc2F)c2c(F)cccc12)C(=O)NCCS(C)(=O)=O` [Example 370], `CC(C)(C)[C@H](NC(=O)c1nn(Cc2ccc(C#N)cc2F)c2c(F)cccc12)C(=O)NCCS(N)(=O)=O` [Example 371] is 2.4-fold lower in Ki: 132 nM for the first, 54.8 nM for the second.

First: Cc1nnc(CNC(=O)[C@@H](NC(=O)c2nn(Cc3ccc(C#N)cc3F)c3c(F)cccc23)C(C)(C)C)o1 [Example 372]
Second: CC(C)(C)[C@H](NC(=O)c1nn(Cc2ccc(C#N)cc2)c2c(F)cccc12)C(=O)NCC1CCC(=O)N1 (stereo partly drawn) [Example 402]
The Ki of the first is 12-fold lower: 22.6 nM for the first, 277 nM for the second.

Compared with `CC(C)(C)[C@@H](NC(=O)c1nn(Cc2ccc(C#N)cc2)c2ccccc12)C(N)=O` [Example 383], `CC(C)(C)[C@H](NC(=O)c1nn(Cc2ccc(C#N)cc2)c2ccccc12)C(=O)N[C@H]1C[C@@H](C(N)=O)C1` [Example 396] is lower in Ki: > 400 nM for the first, 239 nM for the second.

Going from `COc1cc(C#N)ccc1Cn1nc(C(=O)N[C@H](C(N)=O)C(C)(C)C)c2ccccc21` [Example 385] to `COc1cc(C#N)ccc1Cn1nc(C(=O)N[C@@H](C(N)=O)C(C)(C)C)c2ccccc21` [Example 394], the Ki rises from 166 nM to > 400 nM. The first binds more tightly here.

First: COc1cc(C#N)ccc1Cn1nc(C(=O)N[C@H](C(=O)NCCO)C(C)(C)C)c2ccccc21 [Example 386]
Second: COc1cc(C#N)ccc1Cn1nc(C(=O)N[C@H](C(=O)NC[C@H](O)CO)C(C)(C)C)c2ccccc21 [Example 387]
The Ki of the first is lower: 209 nM for the first, > 400 nM for the second.

`COc1cc(C#N)ccc1Cn1nc(C(=O)N[C@H](C(=O)NCC(N)=O)C(C)(C)C)c2ccccc21` [Example 388] and `COc1cc(C#N)ccc1Cn1nc(C(=O)N[C@H](C(=O)NCCS(N)(=O)=O)C(C)(C)C)c2ccccc21` [Example 390] cannot be ordered by Ki: > 400 nM for the first, > 400 nM for the second.

`COc1cc(C#N)ccc1Cn1nc(C(=O)N[C@H](C(=O)NC[C@@H](O)CO)C(C)(C)C)c2ccccc21` [Example 389] and `COc1cc(C#N)ccc1Cn1nc(C(=O)N[C@H](C(=O)NC(CO)CO)C(C)(C)C)c2ccccc21` [Example 391] cannot be ordered by Ki: > 400 nM for the first, > 400 nM for the second.

`COc1cc(C#N)ccc1Cn1nc(C(=O)N[C@H](C(=O)NCCS(C)(=O)=O)C(C)(C)C)c2ccccc21` [Example 392] and `COc1cc(C#N)ccc1Cn1nc(C(=O)N[C@H](C(=O)NC2CC2)C(C)(C)C)c2ccccc21` [Example 393] cannot be ordered by Ki: > 400 nM for the first, > 400 nM for the second.

Going from `CC(C)(C)[C@H](NC(=O)c1nn(Cc2ccc(C#N)cc2F)c2ccccc12)C(=O)N[C@H]1C[C@@H](C(N)=O)C1` [Example 397] to `COc1cc(C#N)ccc1Cn1nc(C(=O)N[C@H](C(=O)N[C@H]2C[C@@H](C(N)=O)C2)C(C)(C)C)c2ccccc21` [Example 399], the Ki rises from 243 nM to > 400 nM.

Same assay, conditions: read-out: CB1 Ki

First: COc1cc(CNC(=O)[C@@H](NC(=O)c2nn(Cc3ccc(C#N)cc3)c3ccccc23)C(C)(C)C)on1 [Example 311]
Second: COc1cc(CNC(=O)[C@@H](NC(=O)c2nn(Cc3ccc(C#N)cc3)c3cc(F)ccc23)C(C)(C)C)on1 [Example 313]
The Ki of the first is 1.9-fold lower: 147 nM for the first, 273 nM for the second.

Compared with `COc1cc(CNC(=O)[C@@H](NC(=O)c2nn(Cc3ccc(C#N)cc3)c3c(F)cccc23)C(C)(C)C)on1` [Example 312], `Cc1cc(O)nc(CNC(=O)[C@@H](NC(=O)c2nn(Cc3ccc(C#N)cc3)c3c(F)cccc23)C(C)(C)C)n1` [Example 349] is 1.8-fold lower in Ki: 178 nM for the first, 101 nM for the second.

First: CCNC(=O)OC1CCCN(C(=O)[C@@H](NC(=O)c2nn(Cc3ccc(F)cc3)c3ccccc23)C(C)(C)C)C1 (stereo partly drawn) [Example 317]
Second: CC(C)NC(=O)OC1CCCN(C(=O)[C@@H](NC(=O)c2nn(Cc3ccc(F)cc3)c3ccccc23)C(C)(C)C)C1 (stereo partly drawn) [Example 318]
The Ki of the first is 2.2-fold lower: 31.1 nM for the first, 68.7 nM for the second. The first binds more tightly here.

First: CCOC(=O)C1(F)CCN(C(=O)[C@@H](NC(=O)c2nn(Cc3ccc(F)cc3)c3ccccc23)C(C)(C)C)CC1 [Example 342]
Second: CC(C)(C)[C@H](NC(=O)c1nn(Cc2ccc(F)cc2)c2ccccc12)C(=O)N1CCC(F)(C(N)=O)CC1 [Example 343]
The Ki of the first is 11-fold lower: 20.5 nM for the first, 216 nM for the second. The first binds more tightly here.

Compared with `CC(C)(C)[C@H](NC(=O)c1nn(Cc2ccc(F)cc2)c2ccccc12)C(=O)NCC1CN(C(N)=O)C1` [Example 347], `CC(C)(C)[C@H](NC(=O)c1nn(Cc2ccc(F)cc2)c2ccccc12)C(=O)NCC(=O)N1C[C@@H](O)[C@H](O)C1` [Example 378] is 6.5-fold higher in Ki: 24.4 nM for the first, 158 nM for the second. The first binds more tightly here.

First: Cc1cc(O)nc(CNC(=O)[C@@H](NC(=O)c2nn(Cc3ccc(C#N)cc3)c3ccccc23)C(C)(C)C)n1 [Example 350]
Second: CCOC(=O)[C@H]1C[C@@H](NC(=O)[C@@H](NC(=O)c2nn(Cc3ccc(C#N)cc3)c3ccccc23)C(C)(C)C)C1 [Example 380]
The Ki of the first is lower: 229 nM for the first, > 400 nM for the second.

Compared with `Cc1nnc(CNC(=O)[C@@H](NC(=O)c2nn(Cc3ccc(C#N)cc3F)c3c(F)c(F)ccc23)C(C)(C)C)o1` [Example 364], `CCOC(=O)[C@H]1C[C@@H](NC(=O)[C@@H](NC(=O)c2nn(Cc3ccc(C#N)cc3F)c3ccccc23)C(C)(C)C)C1` [Example 382] is 11-fold higher in Ki: 20.9 nM for the first, 238 nM for the second. The first binds more tightly here.

Compared with `CC(C)(C)[C@H](NC(=O)c1nn(Cc2ccc(F)cc2)c2ccccc12)C(=O)NCC(=O)NC(CO)CO` [Example 377], `CC(C)(C)[C@H](NC(=O)c1nn(Cc2ccc(F)cc2)c2ccccc12)C(=O)NCC(=O)N(CCO)CCO` [Example 379] is higher in Ki: 22.5 nM for the first, > 400 nM for the second.
